Where two headings read alike, the source gives them in different places. Blank lines part the entries; values can stand above or below the compound they belong to.
Legend:
IRAK4 [1] = target: T1, IRAK4 (Homo sapiens (Human), UniProt Q9NWZ3); assay: IRAK4 Biochemical HTRF Kinase Assay; conditions: read-out: IRAK4 HTRF biochemical: IC50
In short: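 IC50 values derive from non-linear regression of sixteen concentrations in duplicate. Kinase reaction ran 90 min at ambient temperature after adding 5 μM STK-S1 substrate, 10 mM ATP and 10 mM MgCl2 (reaction-solution levels, pre-dilution to 10 μl); phospho-peptide detected by HTRF after 60 min.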
Target sequence in this assay (Q9NWZ3 whole entry, species assumed): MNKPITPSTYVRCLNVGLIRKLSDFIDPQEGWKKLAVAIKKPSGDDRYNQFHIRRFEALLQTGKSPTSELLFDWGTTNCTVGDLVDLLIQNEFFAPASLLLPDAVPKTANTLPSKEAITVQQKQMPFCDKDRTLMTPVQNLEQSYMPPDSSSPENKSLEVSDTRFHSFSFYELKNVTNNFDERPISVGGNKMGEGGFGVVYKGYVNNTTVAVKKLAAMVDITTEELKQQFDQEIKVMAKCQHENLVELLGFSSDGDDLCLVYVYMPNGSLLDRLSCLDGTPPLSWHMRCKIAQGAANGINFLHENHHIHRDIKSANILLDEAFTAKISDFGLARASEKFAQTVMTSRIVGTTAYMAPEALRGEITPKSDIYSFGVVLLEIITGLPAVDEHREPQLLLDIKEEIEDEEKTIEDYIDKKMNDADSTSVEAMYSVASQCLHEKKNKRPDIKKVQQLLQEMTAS

IRAK4 [2] = target: T1, IRAK4; assay: IRAK4 Degradation HiBiT Assay; conditions: HiBiT-tagged Jurkat cells, 4 hrs; for Dmax: Jurkat; for DC50: read-out: Cellular IRAK4 HiBiT: DC50
Target sequence in this assay (Q9NWZ3 whole entry): as the sequence (Q9NWZ3 whole entry, species assumed) above

[3] = read-out: Cellular IRAK4 HiBiT: Dmax, Table 4
[4] = read-out: Cellular IRAK4 HiBiT: Dmax, Table 5, multiple runs

Compound: CNc1cc(-c2ccc3cc(C#N)cnn23)ncc1-c1nnc([C@H]2CC[C@H](NC(=O)CCOCCOCCOCCNc3cccc4c3C(=O)N(C3CCC(=O)NC3=O)C4=O)CC2)s1 (stereo partly drawn) [Example 70, N-((1r,4r)-4-(5-(6-(3-cyanopyrrolo[1,2-b]pyridazin-7-yl)-4-(methylamino)pyridin-3-yl)-1,3,4-thiadiazol-2-yl)cyclohexyl)-3-(2-(2-(2-((2-(2,6-dioxopiperidin-3-yl)-1,3-dioxoisoindolin-4-yl)amino)ethoxy)ethoxy)ethoxy)propenamide]
IC50 (IRAK4 [1]; Table 4): 0.86 nM
IC50 (IRAK4 [1]; Table 5, multiple runs): 0.8 nM
Dmax (IRAK4 [2]; [3]): 68%
Dmax (IRAK4 [2]; [4]): 100%
DC50 (IRAK4 [2]; Table 4): 6.3 nM
DC50 (IRAK4 [2]; Table 5, multiple runs): 10.8 nM

Compound: CNc1cc(-c2ccc3cc(C#N)cnn23)ncc1-c1nnc([C@H]2CC[C@H](NC(=O)CCOCCNc3cccc4c3C(=O)N(C3CCC(=O)NC3=O)C4=O)CC2)s1 (stereo partly drawn) [Example 71, N-((1r,4r)-4-(5-(6-(3-cyanopyrrolo[1,2-b]pyridazin-7-yl)-4-(methylamino)pyridin-3-yl)-1,3,4-thiadiazol-2-yl)cyclohexyl)-3-(2-((2-(2,6-dioxopiperidin-3-yl)-1,3-dioxoisoindolin-4-yl)amino)ethoxy)propanamide]
IC50 (IRAK4 [1]; Table 4): 0.77 nM
IC50 (IRAK4 [1]; Table 5, multiple runs): 0.8 nM
Dmax (IRAK4 [2]; [3]): 93%
Dmax (IRAK4 [2]; [4]): 52%
DC50 (IRAK4 [2]; Table 4): 12.9 nM
DC50 (IRAK4 [2]; Table 5, multiple runs): 5.87 nM

Compound: Cc1ncsc1-c1ccc([C@H](C)NC(=O)[C@@H]2C[C@@H](O)CN2C(=O)[C@@H](NC(=O)CCOCCOCCOCCC(=O)N2CCN(c3nnc(-c4cnc(-c5ccc6cc(C#N)cnn56)cc4NC(C)C)s3)CC2)C(C)(C)C)cc1 [Example 78, (2S,4R)-1-((S)-2-(tert-butyl)-16-(4-(5-(6-(3-cyanopyrrolo[1,2-b]pyridazin-7-yl)-4-(isopropylamino)pyridin-3-yl)-1,3,4-thiadiazol-2-yl)piperazin-1-yl)-4,16-dioxo-7,10,13-trioxa-3-azahexadecanoyl)-4-hydroxy-N—((S)-1-(4-(4-methylthiazol-5-yl)phenyl)ethyl)pyrrolidine-2-carboxamide]
IC50 (IRAK4 [1]; Table 5, multiple runs): 2.4 nM
Dmax (IRAK4 [2]; [4]): 74%
DC50 (IRAK4 [2]; Table 5, multiple runs): 332 nM

Compound: Cc1ncsc1-c1ccc(CNC(=O)[C@@H]2C[C@@H](O)CN2C(=O)[C@@H](NC(=O)C2(F)CC2)C(C)(C)C)c(OCCCC(=O)N2CCN(c3nnc(-c4cnc(-c5ccc6cc(C#N)cnn56)cc4NC(C)C)s3)CC2)c1 [Example 79, (2S,4R)—N-(2-(4-(4-(5-(6-(3-cyanopyrrolo[1,2-b]pyridazin-7-yl)-4-(isopropylamino)pyridin-3-yl)-1,3,4-thiadiazol-2-yl)piperazin-1-yl)-4-oxobutoxy)-4-(4-methylthiazol-5-yl)benzyl)-1-((S)-2-(1-fluorocyclopropane-1-carboxamido)-3,3-dimethylbutanoyl)-4-hydroxypyrrolidine-2-carboxamide]
IC50 (IRAK4 [1]; Table 5, multiple runs): 9.8 nM
Dmax (IRAK4 [2]; [4]): 113%
DC50 (IRAK4 [2]; Table 5, multiple runs): 137 nM

Second part, the compound after the results:

IC50 (IRAK4 [1]; Table 4): 0.81 nM
IC50 (IRAK4 [1]; Table 5, multiple runs): 0.9 nM
Dmax (IRAK4 [2]; [3]): 98%
Dmax (IRAK4 [2]; [4]): 73%
DC50 (IRAK4 [2]; Table 4): 12.6 nM
DC50 (IRAK4 [2]; Table 5, multiple runs): 6.71 nM
Compound: CNc1cc(-c2ccc3cc(C#N)cnn23)ncc1-c1nnc([C@H]2CC[C@H](NC(=O)[C@H]3C[C@@H](OCCNc4cccc5c4C(=O)N(C4CCC(=O)NC4=O)C5=O)C3)CC2)s1 (stereo partly drawn) [Example 69, (1s,3S)—N-((1r,4R)-4-(5-(6-(3-cyanopyrrolo[1,2-b]pyridazin-7-yl)-4-(methylamino)pyridin-3-yl)-1,3,4-thiadiazol-2-yl)cyclohexyl)-3-(2-((2-(2,6-dioxopiperidin-3-yl)-1,3-dioxoisoindolin-4-yl)amino)ethoxy)cyclobutane-1-carboxamide]

IC50 (IRAK4 [1]; Table 5, multiple runs): 3.1 nM
Dmax (IRAK4 [2]; [4]): 94%
DC50 (IRAK4 [2]; Table 5, multiple runs): 189 nM
Compound: CC(C)Nc1cc(-c2ccc3cc(C#N)cnn23)ncc1-c1nnc(N2CCN(CC3CCN(c4ccc5c(=O)n(C6CCC(=O)NC6=O)ccc5c4)CC3)CC2)s1 (stereo not drawn) [Example 72, 7-(5-(5-(4-((1-(2-(2,6-dioxopiperidin-3-yl)-1-oxo-1,2-dihydroisoquinolin-6-yl)piperidin-4-yl)methyl)piperazin-1-yl)-1,3,4-thiadiazol-2-yl)-4-(isopropylamino)pyridin-2-yl)pyrrolo[1,2-b]pyridazine-3-carbonitrile]

IC50 (IRAK4 [1]; Table 5, multiple runs): 1.9 nM
Dmax (IRAK4 [2]; [4]): 69%
DC50 (IRAK4 [2]; Table 5, multiple runs): 25.2 nM
Compound: CC(C)Nc1cc(-c2ccc3cc(C#N)cnn23)ncc1-c1nnc(N2CCN(C(=O)C3CCN(C(=O)CNc4cccc5c4C(=O)N(C4CCC(=O)NC4=O)C5=O)CC3)CC2)s1 (stereo not drawn) [Example 73, 7-(5-(5-(4-(1-((2-(2,6-dioxopiperidin-3-yl)-1,3-dioxoisoindolin-4-yl)glycyl)piperidine-4-carbonyl)piperazin-1-yl)-1,3,4-thiadiazol-2-yl)-4-(isopropylamino)pyridin-2-yl)pyrrolo[1,2-b]pyridazine-3-carbonitrile]

IC50 (IRAK4 [1]; Table 5, multiple runs): 2.5 nM
Dmax (IRAK4 [2]; [4]): 82%
DC50 (IRAK4 [2]; Table 5, multiple runs): 28.9 nM
Compound: CC(C)Nc1cc(-c2ccc3cc(C#N)cnn23)ncc1-c1nnc(N2CCN(C3CCN(C(=O)CNc4cccc5c4C(=O)N(C4CCC(=O)NC4=O)C5=O)CC3)CC2)s1 (stereo not drawn) [Example 74, 7-(5-(5-(4-(1-((2-(2,6-dioxopiperidin-3-yl)-1,3-dioxoisoindolin-4-yl)glycyl)piperidin-4-yl)piperazin-1-yl)-1,3,4-thiadiazol-2-yl)-4-(isopropylamino)pyridin-2-yl)pyrrolo[1,2-b]pyridazine-3-carbonitrile]

IC50 (IRAK4 [1]; Table 5, multiple runs): 0.8 nM
Dmax (IRAK4 [2]; [4]): 111%
DC50 (IRAK4 [2]; Table 5, multiple runs): 8.59 nM
Compound: CC(C)Nc1cc(-c2ccc3cc(C#N)cnn23)ncc1-c1nnc(N2CCN(C3CCN(C(=O)Cc4ccc5c(c4)CN(C4CCC(=O)NC4=O)C5=O)CC3)CC2)s1 (stereo not drawn) [Example 75, 7-(5-(5-(4-(1-(2-(2-(2,6-dioxopiperidin-3-yl)-1-oxoisoindolin-5-yl)acetyl)piperidin-4-yl)piperazin-1-yl)-1,3,4-thiadiazol-2-yl)-4-(isopropylamino)pyridin-2-yl)pyrrolo[1,2-b]pyridazine-3-carbonitrile]

IC50 (IRAK4 [1]; Table 5, multiple runs): 0.8 nM
Dmax (IRAK4 [2]; [4]): 100%
DC50 (IRAK4 [2]; Table 5, multiple runs): 13.1 nM
Compound: CC(C)Nc1cc(-c2ccc3cc(C#N)cnn23)ncc1-c1nnc(N2CCN(C3CCN(C(=O)Cc4cccc5c4CN(C4CCC(=O)NC4=O)C5=O)CC3)CC2)s1 (stereo not drawn) [Example 76, 7-(5-(5-(4-(1-(2-(2-(2,6-dioxopiperidin-3-yl)-1-oxoisoindolin-4-yl)acetyl)piperidin-4-yl)piperazin-1-yl)-1,3,4-thiadiazol-2-yl)-4-(isopropylamino)pyridin-2-yl)pyrrolo[1,2-b]pyridazine-3-carbonitrile]

IC50 (IRAK4 [1]; Table 5, multiple runs): 0.5 nM
Dmax (IRAK4 [2]; [4]): 114%
DC50 (IRAK4 [2]; Table 5, multiple runs): 15.1 nM
Compound: CC(C)Nc1cc(-c2ccc3cc(C#N)cnn23)ncc1-c1nnc(N2CCN(C3CCN(C(=O)c4ccc5c(c4)C(=O)N(C4CCC(=O)NC4=O)C5)CC3)CC2)s1 (stereo not drawn) [Example 77, 7-(5-(5-(4-(1-(2-(2,6-dioxopiperidin-3-yl)-3-oxoisoindoline-5-carbonyl)piperidin-4-yl)piperazin-1-yl)-1,3,4-thiadiazol-2-yl)-4-(isopropylamino)pyridin-2-yl)pyrrolo[1,2-b]pyridazine-3-carbonitrile]

From patent US12528814B2, “Bifunctional degraders of interleukin-1 receptor-associated kinases and therapeutic use thereof” (NURIX THERAPEUTICS, INC., priority 2020, dated 2026)
